Data taken from publication PMC10432564, “Pharmacological perturbation of the phase-separating protein SMNDC1” (Nature Communications, 2023).

Assays:
[1] = Solubility in aqueous, buffered solution for NMR; assay type: physicochemical
Experimental: All NMR acquisition was performed in 3 mm tubes at 25 °C. […] All titration measurements were performed in 20 mM sodium phosphate buffer pH 6.5, 50 mM NaCl, 4 mM dithiothreitol and 10% (v/v) D2O as deuterium lock. Aqueous, buffered inhibitor stock solutions of maximal 20 mM concentration were prepared and carefully adjusted to pH 6.5. Inhibitor concentration was measured by addition of 100 µM DSS, peak integration and calculating with C=I⋅NDSS⋅CDSS/IDSS⋅N where C, I, N and CDSS, IDSS, NDSS is the concentration, peak intensity, and number of protons of inhibitor and DSS, respectively.

SMN-RFP intron 5-6, αTC1 = assay: Live imaging of SMN-RFP; assay type: cell-based, mouse; settings: 50 µM, 16 h
From the text: Cell lines with fluorescent tags in the endogenous intron loci of different genes were generated as described in Serebrenik et al., and Reicher et al.[39],[74]. Cells were transiently transfected using Avalanche-Everyday Transfection Reagent with three plasmids in parallel: (1) the donor plasmid containing the artificial intron with splice acceptor and splice donor site, the fluorescent tag GFP or RFP, and a possible correction for the frame of the targeted intron, (2) a pX330 backbone containing Cas9 and the gRNA against the donor plasmid, and (3) a plasmid expressing the gRNA against the target intron (see table below). After 3–5 days, GFP- and/or RFP-positive cells were sorted on a SONY SH800 Cell Sorter to get fluorescent single cell clones. […]
Images were analyzed using the high-content image acquisition and analysis software Harmony® 4.9 developed by PerkinElmer. […] Even though the highest staining of these nuclear markers is obviously detected in the nucleus they still produce a significant staining of the cytoplasm above background. After defining the respective cell areas, mean intensity in the different channels was measured. […]

αTC1 cells = assay: Alternative splicing, RNA sequencing (VAST-TOOLS) and RT-PCR; assay type: cell-based, mouse
Experimental: To perform splicing PCRs, RNA was isolated from pelleted cells using the RNeasy Mini Kit (Qiagen, #74106).
RNA sequencing libraries were prepared from low-input samples using the Smart-seq2 protocol. The subsequent library preparation from the amplified cDNA was performed using the Nextera XT DNA library prep kit (Illumina, San Diego, CA, USA). Library concentrations were quantified with the Qubit 2.0 Fluorometric Quantitation system (Life Technologies, Carlsbad, CA, USA) and the size distribution was assessed using the Experion Automated Electrophoresis System (Bio-Rad, Hercules, CA, USA). For sequencing, samples were diluted and pooled into NGS libraries in equimolar amounts.
Alternative splicing events were characterized and quantified using VAST-TOOLS[54] (2.5.1) in conjunction with the Mus musculus database (vastdb.mm2.23.06.20), based on the Genome Reference Consortium assembly GRCm38.p5 and Ensembl transcript annotation 88 (March 2017). Briefly, NGS reads were aligned for each read group independently, read groups were merged into samples and samples were combined into a summary table. […]

SMN Tudor domain = SMN Tudor domain (Homo sapiens, UniProt Q16637); assay: AlphaScreen, SMN Tudor domain / sDMA-peptide interaction
Sequence of SMN Tudor domain (Q16637 84-147): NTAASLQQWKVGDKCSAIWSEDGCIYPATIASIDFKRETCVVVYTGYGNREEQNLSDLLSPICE
Experimental: To establish an AlphaScreen[50], we coupled donor beads to purified SMNDC1’s (or SMN’s) Tudor domain via a His-Tag and acceptor beads to a biotinylated peptide corresponding to the C-terminal region of the Small nuclear ribonucleoprotein Sm D3 containing four sDMAs (Fig. 4a). […] To identify ideal concentrations for screening, we performed a cross-titration of Tudor domains and binding peptides (Supplementary Fig. 3b).
The AlphaScreen was conducted in 20 mM sodium phosphate pH 6.5, 50 mM NaCl, Tween 0.01%, BSA 0.1%. Protein concentration was optimized for each batch of purified protein. Optimal concentration was chosen at the lowest concentration with ~80% of maximum signal. […] In the first step, 10 µl of the protein solution containing either SMNDC1’s or SMN’s Tudor domain coupled to a 6xHis-Tag were distributed to 384-well plates pre-spotted with compounds and controls, shaken and incubated for 30 min at RT. Afterwards, 10 µl of peptide solution was added to each well and incubated for 1 h at RT. Finally, 5 µl of a solution containing both Streptavidin Donor and nickel chelate (Ni-NTA) Acceptor beads was added and again incubated for 1 h at RT.

SMILES: CN(C)S(=O)(=O)c1ccc(C(=O)Nc2nc(-c3ccccn3)cs2)cc1 [compound 1]
- solubility [1]: insufficient solubility
- number of SMN spots in the cytoplasm (SMN-RFP intron 5-6, αTC1): increased
- overall intensity of SMN (SMN-RFP intron 5-6, αTC1): decreased
- alternatively spliced isoforms by RT-PCR, long-term low-dose treatment (αTC1 cells; 2 µM over 5 days): could also see the effect
- alternative splicing events (αTC1 cells; paired-end RNA sequencing, compound over DMSO): increased retention of introns and skipping of exons
- IC50 (SMN Tudor domain): 880 nM
